Key:
AMPK beta 2 = target: T1, AMPK beta 2 (Mus musculus, UniProt Q6PAM0+Q8BRK8); assay: in-cell-ELISA for phospho-ACC: activation of AMPK, beta 2 (HepG2 cells / C2C12 myotubes); assay type: cell-based; settings: 2 h, percentage activation over vehicle control; for activation at 1 µM / activation at 3 µM / activation at 10 µM: read-out: Percentage activation of beta 2 at given concentration
T1 construct: fully differentiated myotubes (C2C12 cells) grown in 96 well plate; endogenous in cells; host or cells: C2C12 myotubes (assignment to the beta 2 column inferred)
Procedure: (§1) Activation of AMPK by various compounds were measured using in-cell-ELISA for phospho-ACC (Acetyl-CoA carboxylase 1) in HepG2 cells (liver) and fully differentiated myotubes (C2C12 cells) grown in 96 well plate. Cells were treated with 1 μM, 3 μM or 10 μM of the molecule (Example) for 2 h in serum free DMEM media. After methanol fixation, cells were blocked with BSA followed by addition of anti-phospho ACC antibody (Cell Signaling) and HRP conjugated secondary antibody. Absorbance values taken at 450 nm were normalized with total DNA (Hoechest stain). Results were expressed as percentage activation over vehicle control.
(§2) Percentage activation at compound (Example) concentration of 1, 3 or 10 μM for compounds according to the invention are shown in the following table. The number of the compound corresponds to the number of the Example (Ex) in the experimental section.

AMPK beta 1 = target: T2, AMPK beta 1 (Homo sapiens, UniProt Q13131+Q9Y478); assay: in-cell-ELISA for phospho-ACC: activation of AMPK, beta 1 (HepG2 cells / C2C12 myotubes); assay type: cell-based; settings: 2 h, percentage activation over vehicle control; for activation at 1 µM / activation at 3 µM / activation at 10 µM: read-out: Percentage activation of beta 1 at given concentration
T2 construct: in-cell-ELISA for phospho-ACC (Acetyl-CoA carboxylase 1) in HepG2 cells (liver); endogenous in cells; host or cells: HepG2 (assignment to the beta 1 column inferred)
Procedure: as §1, §2

T1 sequence (Q6PAM0 whole entry): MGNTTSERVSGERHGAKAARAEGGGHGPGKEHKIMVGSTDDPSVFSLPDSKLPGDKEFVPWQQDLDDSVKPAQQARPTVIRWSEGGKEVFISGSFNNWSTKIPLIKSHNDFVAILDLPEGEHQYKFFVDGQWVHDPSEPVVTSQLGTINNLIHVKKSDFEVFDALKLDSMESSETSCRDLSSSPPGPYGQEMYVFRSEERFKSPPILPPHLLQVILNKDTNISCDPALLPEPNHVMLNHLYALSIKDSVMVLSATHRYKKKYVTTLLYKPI
T1 sequence (Q8BRK8 whole entry): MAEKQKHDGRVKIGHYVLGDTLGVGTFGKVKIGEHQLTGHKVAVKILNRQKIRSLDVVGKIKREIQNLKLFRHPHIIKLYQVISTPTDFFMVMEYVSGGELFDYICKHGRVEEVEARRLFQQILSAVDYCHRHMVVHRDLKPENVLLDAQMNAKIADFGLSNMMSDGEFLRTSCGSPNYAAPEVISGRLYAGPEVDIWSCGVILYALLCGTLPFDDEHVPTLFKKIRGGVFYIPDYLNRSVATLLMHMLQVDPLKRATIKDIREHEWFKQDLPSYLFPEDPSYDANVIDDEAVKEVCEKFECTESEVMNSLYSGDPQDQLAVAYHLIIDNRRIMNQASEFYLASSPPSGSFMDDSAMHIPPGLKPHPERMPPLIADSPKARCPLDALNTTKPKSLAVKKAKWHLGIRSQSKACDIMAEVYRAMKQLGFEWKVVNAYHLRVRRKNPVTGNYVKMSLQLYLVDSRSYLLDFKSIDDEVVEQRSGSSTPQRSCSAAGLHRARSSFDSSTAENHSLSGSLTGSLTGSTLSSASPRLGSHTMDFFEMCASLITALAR
T1 sequence (O54950 whole entry partner): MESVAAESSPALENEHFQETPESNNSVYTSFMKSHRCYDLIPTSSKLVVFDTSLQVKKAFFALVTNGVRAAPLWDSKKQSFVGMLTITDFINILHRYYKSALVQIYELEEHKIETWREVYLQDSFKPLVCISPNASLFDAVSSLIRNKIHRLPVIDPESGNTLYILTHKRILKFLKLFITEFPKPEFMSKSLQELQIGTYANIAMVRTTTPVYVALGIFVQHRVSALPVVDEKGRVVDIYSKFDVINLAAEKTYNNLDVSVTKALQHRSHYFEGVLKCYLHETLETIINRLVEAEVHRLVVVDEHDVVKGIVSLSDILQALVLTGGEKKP
T2 sequence (Q9Y478 2-270 limits assumed): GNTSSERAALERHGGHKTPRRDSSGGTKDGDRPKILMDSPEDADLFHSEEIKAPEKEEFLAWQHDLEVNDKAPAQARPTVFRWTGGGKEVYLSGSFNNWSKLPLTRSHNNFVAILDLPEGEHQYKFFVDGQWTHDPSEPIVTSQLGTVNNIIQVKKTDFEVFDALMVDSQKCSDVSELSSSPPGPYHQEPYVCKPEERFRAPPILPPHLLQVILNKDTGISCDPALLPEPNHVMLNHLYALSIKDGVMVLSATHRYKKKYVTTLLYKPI
T2 sequence (Q13131 whole entry): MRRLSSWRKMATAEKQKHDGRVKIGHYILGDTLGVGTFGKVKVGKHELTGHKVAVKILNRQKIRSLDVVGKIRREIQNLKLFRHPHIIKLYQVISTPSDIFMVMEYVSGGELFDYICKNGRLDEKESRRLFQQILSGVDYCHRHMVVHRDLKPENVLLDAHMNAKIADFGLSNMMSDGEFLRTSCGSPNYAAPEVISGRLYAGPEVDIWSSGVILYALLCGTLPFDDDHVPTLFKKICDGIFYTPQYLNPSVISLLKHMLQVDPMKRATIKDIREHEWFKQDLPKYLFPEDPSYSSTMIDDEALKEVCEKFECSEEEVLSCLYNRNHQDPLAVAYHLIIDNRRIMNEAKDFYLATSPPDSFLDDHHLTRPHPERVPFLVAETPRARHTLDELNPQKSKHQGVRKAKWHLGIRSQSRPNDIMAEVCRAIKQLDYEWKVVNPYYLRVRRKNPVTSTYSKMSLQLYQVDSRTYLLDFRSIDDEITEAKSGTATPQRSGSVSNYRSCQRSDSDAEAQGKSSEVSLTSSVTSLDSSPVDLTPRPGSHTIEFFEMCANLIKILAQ
T2 sequence (P54619 whole entry partner): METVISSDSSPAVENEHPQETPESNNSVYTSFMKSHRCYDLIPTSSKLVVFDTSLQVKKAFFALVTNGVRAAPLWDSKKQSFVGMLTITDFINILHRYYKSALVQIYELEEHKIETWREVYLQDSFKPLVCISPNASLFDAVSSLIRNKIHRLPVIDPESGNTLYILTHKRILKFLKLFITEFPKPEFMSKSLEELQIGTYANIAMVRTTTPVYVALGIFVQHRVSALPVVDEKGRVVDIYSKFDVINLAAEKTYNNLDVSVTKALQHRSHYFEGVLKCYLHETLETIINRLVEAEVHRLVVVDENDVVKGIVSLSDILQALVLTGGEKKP

Row | Compound | activation at 1 µM (AMPK beta 2; 1 μM) | activation at 1 µM (AMPK beta 1; 1 μM) | activation at 3 µM (AMPK beta 2; 3 μM) | also measured
1 | Cc1ccc(C2CC23C(=O)Nc2cc(Cl)c(-c4ccc(-c5ccc(-n6cncn6)cc5)cc4)nc23)cc1C(=O)O (centres unmarked) [Example 125] | 46% | 81% | – | –
2 | Cc1ccc(C2CC23C(=O)Nc2cc(F)c(-c4ccc(-c5ccc(-n6cncn6)cc5)cc4)cc23)cc1C(=O)O (centres unmarked) [Example 145] | – | – | – | Percentage activation of beta 2 at given concentration (AMPK beta 2; 1 μM): 138% at 1 μM; Percentage activation of beta 1 at given concentration (AMPK beta 1; 1 μM): 67% at 1 μM
3 | Cc1ccc(C2CC23C(=O)N(C)c2cc(Cl)c(-c4ccc(-c5ccncc5)cc4)cc23)cc1C(=O)O (centres unmarked) [Example 101] | – | 103% | 46% | –
4 | Cc1ccc(C2CC23C(=O)Nc2cc(Cl)c(-c4ccc(-c5ccccc5O)cc4)cc23)cc1CO (centres unmarked) [Example 181] | 88% | 88% | – | –
5 | CC(C)(C(=O)O)c1ccc(C2CC23C(=O)Nc2cc(Cl)c(-c4ccc(-c5ccccc5O)cc4)cc23)cc1 (centres unmarked) [Example 38] | – | 58% | 106% | –
6 | Cc1ccc(C2CC23C(=O)Nc2cc(Cl)c(-c4ccc(-c5ccc(-n6cccn6)cc5)cc4)nc23)cc1C(=O)O (centres unmarked) [Example 138] | 173% | 72% | – | –
7 | COc1ccc(C2CC23C(=O)N(C)c2cc(Cl)c(-c4ccc(-c5ccccc5O)cc4)cc23)cc1CC(=O)O (centres unmarked) [Example 35] | – | – | 23% | activation at 3 µM (AMPK beta 1; 3 μM): 27%
8 | O=C(O)Cc1ccc(C2CC23C(=O)Nc2cc(Cl)c(-c4ccc(-c5ccccc5O)cc4)cc23)cc1 (centres unmarked) [Example 33] | – | – | 83% | activation at 3 µM (AMPK beta 1; 3 μM): 71%
9 | CC(C)c1ccc(C2CC23C(=O)Nc2cc(Cl)c(-c4ccc(-c5ccc(-n6cncn6)cc5)cc4)cc23)cc1C(=O)O (centres unmarked) [Example 132] | 153% | 59% | – | –
10 | CC(C)(C(=O)O)c1ccc(C2CC23C(=O)Nc2cc(F)c(-c4ccc(-c5ccc(-n6cccn6)cc5)cc4)cc23)cc1 (centres unmarked) [Example 158] | 38% | 78% | – | –
11 | Cc1ccc(C2CC23C(=O)N(CC2CC2)c2cc(Cl)c(-c4ccc(-c5ccncc5)cc4)cc23)cc1C(=O)O (centres unmarked) [Example 107] | – | 94% | 65% | –
12 | CC(C)(C(=O)O)c1ccc(C2CC23C(=O)Nc2cc(F)c(-c4ccc(-c5ccc(-n6cncn6)cc5)cc4)cc23)cc1 (centres unmarked) [Example 162] | 79% | – | – | Percentage activation of beta 1 at given concentration (AMPK beta 1; 1 μM): 61% at 1 μM
13 | COc1ccc(C2CC23C(=O)Nc2cc(Cl)c(-c4ccc(-c5ccc(-n6cncn6)cc5)cc4)cc23)cc1CC(=O)O (centres unmarked) [Example 123] | 85% | 66% | – | –
14 | Cc1ccc(C2CC23C(=O)Nc2cc(Cl)c(-c4ccc(-c5ccc(-n6cccn6)cc5)cc4)cc23)cc1C(=O)O (centres unmarked) [Example 114] | – | 79% | 57% | –
15 | COc1ccc(C2CC23C(=O)Nc2cc(F)c(-c4ccc(-c5ccc(-n6ccnn6)cc5)cc4)cc23)cc1C(=O)O (centres unmarked) [Example 169] | 61% | 36% | – | –
16 | CC(C)c1ccc(C2CC23C(=O)N(C)c2cc(Cl)c(-c4ccc(-c5ccncc5O)cc4)cc23)cc1C(=O)O (centres unmarked) [Example 40] | – | – | 32% | activation at 3 µM (AMPK beta 1; 3 μM): 99%
17 | CCc1ccc(C2CC23C(=O)Nc2cc(Cl)c(-c4ccc(-c5ccc(-n6cncn6)cc5)cc4)nc23)cc1C(=O)O (centres unmarked) [Example 133] | 36% | 49% | – | –
18 | CCc1ccc(C2CC23C(=O)Nc2cc(Cl)c(-c4ccc(-c5ccc(-n6cncn6)cc5)cc4)cc23)cc1C(=O)O (centres unmarked) [Example 130] | 102% | 52% | – | –
19 | Cc1ccc(C2CC23C(=O)N(CC2CC2)c2cc(Cl)c(-c4ccc(-c5ccncc5)cc4)cc23)cc1C(=O)O (centres unmarked) [Example 108] | – | – | – | Percentage activation of beta 2 at given concentration (AMPK beta 2; 3 μM): 54% at 3 μM; Percentage activation of beta 1 at given concentration (AMPK beta 1; 3 μM): 72% at 3 μM
20 | Cc1ccc(C2CC23C(=O)Nc2cc(Cl)c(-c4ccc(-c5ccc(-n6ccnn6)cc5)cc4)cc23)cc1C(=O)O (centres unmarked) [Example 135] | – | – | – | Percentage activation of beta 2 at given concentration (AMPK beta 2; 1 μM): 214% at 1 μM; Percentage activation of beta 1 at given concentration (AMPK beta 1; 1 μM): 97% at 1 μM
21 | O=C(O)c1cccc(C2CC23C(=O)Nc2cc(F)c(-c4ccc(-c5ccc(-n6cccn6)cc5)cc4)cc23)c1 (centres unmarked) [Example 170] | 50% | 58% | – | –
22 | Cc1ccc(C2CC23C(=O)Nc2cc(F)c(-c4ccc(-c5ccc(-n6cccn6)cc5)cc4)cc23)cc1C(=O)O (centres unmarked) [Example 142] | 66% | – | – | Percentage activation of beta 1 at given concentration (AMPK beta 1; 1 μM): 89% at 1 μM

Row | Compound | activation at 1 µM (AMPK beta 2; 1 μM) | activation at 1 µM (AMPK beta 1; 1 μM) | activation at 3 µM (AMPK beta 2; 3 μM) | also measured
23 | Cc1ccc(C2CC23C(=O)Nc2cc(Cl)c(-c4ccc(-c5ccc(-n6ccnc6C)cc5)cc4)cc23)cc1C(=O)O (centres unmarked) [Example 150] | 81% | 18% | – | –
24 | Cc1ccc(C2CC23C(=O)Nc2cc(Cl)c(-c4ccc(-c5ccc(-n6cncn6)cc5)cc4)cc23)cc1C(=O)O (centres unmarked) [Example 115] | 114% | – | – | Percentage activation of beta 1 at given concentration (AMPK beta 1; 1 μM): 132% at 1 μM
25 | COc1ccc(C2CC23C(=O)Nc2cc(Cl)c(-c4ccc(-c5ccccc5O)cc4)cc23)cc1CC(=O)O (centres unmarked) [Example 25] | – | 62% | 101% | –
26 | Cc1ccc(C2CC23C(=O)Nc2cc(F)c(-c4ccc(-c5ccccc5O)cc4)cc23)cc1C(=O)O (centres unmarked) [Example 5] | 50% | – | – | activation at 3 µM (AMPK beta 1; 3 μM): 133%
27 | CCN1C(=O)C2(CC2c2ccc(C)c(C(=O)O)c2)c2cc(-c3ccc(-c4ccncc4)cc3)c(Cl)cc21 (centres unmarked) [Example 103] | – | – | 2% | activation at 3 µM (AMPK beta 1; 3 μM): 74%
28 | COc1ccc(C2CC23C(=O)Nc2cc(Cl)c(-c4ccc(-c5ccc(-n6ccnn6)cc5)cc4)cc23)cc1C(=O)O (centres unmarked) [Example 139] | 283% | – | – | activation at 3 µM (AMPK beta 1; 3 μM): 85%
29 | O=C(O)c1cccc(C2CC23C(=O)Nc2cc(Cl)c(-c4ccc(-c5ccncc5)cc4)cc23)c1 (centres unmarked) [Example 80] | – | – | 54% | activation at 10 µM (AMPK beta 1): 137%
30 | Cc1ccc(C2CC23C(=O)Nc2cc(Cl)c(-c4ccc(-c5ccc(S(C)(=O)=O)cc5)cc4)cc23)cc1C(=O)O (centres unmarked) [Example 97] | 37% | 99% | – | –
31 | Cc1ccc(C2CC23C(=O)Nc2cc(F)c(-c4ccc(-c5ccc(-n6cncn6)cc5)cc4)cc23)cc1C(=O)O (centres unmarked) [Example 146] | – | – | – | Percentage activation of beta 2 at given concentration (AMPK beta 2; 1 μM): 89% at 1 μM; Percentage activation of beta 1 at given concentration (AMPK beta 1; 1 μM): 78% at 1 μM
32 | Cc1ccc(C2CC23C(=O)Nc2cc(Cl)c(-c4ccc(-c5ccnc(N(C)C)c5)cc4)cc23)cc1C(=O)O (centres unmarked) [Example 86] | – | – | 49% | activation at 3 µM (AMPK beta 1; 3 μM): 95%
33 | COc1ccc(C2CC23C(=O)Nc2cc(F)c(-c4ccc(-c5ccc(-n6cccn6)cc5)cc4)cc23)cc1CC(=O)O (centres unmarked) [Example 176] | 126% | 91% | – | –
34 | CN1C(=O)C2(CC2c2ccc(CC(=O)O)cc2)c2cc(-c3ccc(-c4ccncc4)cc3)c(Cl)cc21 (centres unmarked) [Example 102] | – | – | – | activation at 10 µM (AMPK beta 2): 115%; activation at 3 µM (AMPK beta 1; 3 μM): 33%
35 | Cc1ccc(C2CC23C(=O)Nc2cc(Cl)c(-c4ccc(-c5ccncc5)cc4)cc23)cc1C(=O)O (centres unmarked) [Example 60] | – | 66% | 105% | –
36 | Cc1ccc(C2CC23C(=O)Nc2c3cc(-c3ccc(-c4ccc(-n5cncn5)cc4)cc3)c(Cl)c2Cl)cc1C(=O)O (centres unmarked) [Example 149] | 62% | 26% | – | –
37 | COc1ccc(C2CC23C(=O)Nc2cc(Cl)c(-c4ccc(-c5ccc(-n6cncn6)cc5)cc4)cc23)cc1C(=O)O (centres unmarked) [Example 128] | – | 66% | 198% | –
38 | CC(C)c1ccc(C2CC23C(=O)Nc2cc(Cl)c(-c4ccc(C5(CO)CC5)cc4)cc23)cc1C(=O)O (centres unmarked) [Example 46] | – | – | 42% | activation at 3 µM (AMPK beta 1; 3 μM): 83%
39 | Cc1ccc(C2CC23C(=O)Nc2cc(Cl)c(-c4ccc(-c5ccc(-n6ccnn6)cc5)cc4)cc23)cc1C(=O)O (centres unmarked) [Example 134] | – | – | – | Percentage activation of beta 2 at given concentration (AMPK beta 2; 1 μM): 47% at 1 μM; Percentage activation of beta 1 at given concentration (AMPK beta 1; 1 μM): 123% at 1 μM
40 | O=C(O)Cc1cccc(C2CC23C(=O)Nc2cc(F)c(-c4ccc(-c5ccc(-n6cncn6)cc5)cc4)cc23)c1 (centres unmarked) [Example 175] | 60% | 119% | – | –
41 | COc1ccc(C2CC23C(=O)Nc2cc(F)c(-c4ccc(-c5ccc(-n6cncn6)cc5)cc4)cc23)cc1CC(=O)O (centres unmarked) [Example 178] | 120% | 98% | – | –
42 | O=C(O)c1ccc(C2CC23C(=O)Nc2cc(Cl)c(-c4ccc(-c5ccncc5)cc4)cc23)cc1 (centres unmarked) [Example 95] | – | – | – | activation at 10 µM (AMPK beta 2): 34%; activation at 10 µM (AMPK beta 1): 94%
43 | COc1ccc(C2CC23C(=O)Nc2cc(F)c(-c4ccc(-c5ccc(-n6cncn6)cc5)cc4)cc23)cc1C(=O)O (centres unmarked) [Example 168] | 84% | 55% | – | –

— patent US20160130226A1, “SPIRO-SUBSTITUTED OXINDOLE DERIVATIVES HAVING AMPK ACTIVITY” (BOEHRINGER INGELHEIM INTERNATIONAL GMBH, priority 2013, published 2016)
